{"source": "patent US12383511B2", "about": "“Osteogenic agents and uses thereof” (GoldPorp Pharma Limited, priority 2022, dated 2025)", "format_in_all_cases": "cell-based", "key": {"[1]": {"tested_on": "MC3T3-E1 osteoblast cells", "test": "Osteoblast mineralization assay (Alizarin Red staining)", "settings": "5 μM compared with […]", "description": "MC3T3-E1 cells were seeded at 1×10^5 cells per well in 24-well plates. […] […] Cells were washed twice with PBS and fixed with 10% formalin for 1 hour. Fixed cell was washed twice with distilled water and stained with 2% Alizarin Red S solution (pH 4.1) in the dark for 1 hour. Stain solution was removed and washed 4 times with distilled water."}, "[2]": {"tested_on": "MCF7 cells", "test": "BrdU incorporation proliferation assay", "from_the_text": "The effect of F compounds on estrogen dependent cancer cells was investigated (FIG. 8). […] The fold increase of MCF7 proliferation was similar to that induced by estradiol treatment."}, "[3]": {"tested_on": "MDA-MB-231 cells", "test": "BrdU incorporation proliferation assay", "settings": "5 μM"}, "[4]": {"tested_on": "MC3T3-E1 osteoblasts", "test": "Alkaline phosphatase (ALP) activity assay in MC3T3-E1 osteoblasts", "settings": "for effect of antagonist on F4-induced ALP activity: 5 μM F4", "description": "MC3T3-E1 (passage 4-10) was maintained in Minimal Essential Media (MEM) supplemented with 10% FBS, 1 mM Sodium Pyruvate and 1% 100 ug/ml penicillin-streptomycin (100 U/ml). All reagents are from GIBCO Life Technologies.\nMC3T3-E1 cells were seeded at 1×10^5 cells per well in 24-well plate. […] After treatment, cells were washed twice with PBS and lysed with buffer contains 50 mM Tris pH7.4 and 0.1% Triton X-100. After 3 freeze-thaw cycles, 40 ul of cell lysate was mixed with 50 ul of 2× Assay buffer (2-Amino-2methyl-1-propanol, pH 10.4 with 4 mM MgCl2) and 10 ul of 0.1M 4-Nitrophenyl phosphate. Incubated in 37° C. and recorded at OD410."}, "[5]": {"tested_on": "estrogen responsive gene elements (ERE)", "test": "pERE-Luc reporter gene assay in MC3T3-E1", "settings": "ICI182780 10 nM and 1 μM", "description": "MC3T3-E1 were seeded at 9.0×10^4 per well in 24-well plates. Twenty-four hours after cell seeding, cells were transiently transfected with 500 ng pERE-Luc (contains three repeats of estrogen-response element) by lipofectamine 2000 (Life Technologies) according to manufacturers' instruction (lipofectamine:DNA=3:1)."}, "[6]": {"tested_on": "p38", "test": "Western blot of phosphorylated p38 and total p38", "settings": "with 5 μM F4, 15 and 30 min, MC3T3-E1 osteoblasts", "description": "MC3T3-E1 were lysed with 20 mM Tris pH8.0, 137 mM NaCl, 2 mM EDTA, 1% Triton X-100 and 10% Glycerol with protease inhibitor cocktail (Roche, complete). Protein concentration was determined by Bradford Protein Assay (Bio-Rad) and equal amount of proteins (30 μg) was resolved by SDS-PAGE and transferred onto PVDF membrane. The membrane was blocked with 3% BSA in Tris-buffered saline containing 0.1% Tween 20 and incubated with primary antibody (1:1000) overnight at 4° C. then incubated with HRP-linked secondary antibody for 1 h. Chemiluminescence signals were detected using enhanced chemiluminescence reagents (GE Healthcare) on X-Ray films (Fujifilm).\nThe levels of phosphorylated p38 and total p38 were determined by immunoblotting experiments."}}, "data": [{"compound": "C=Cc1cc(O)cc2ccc3c(C)c(O)ccc3c12", "note": "[F5, dehydroeffusol]", "values": [{"measurement": "calcium deposition at higher vs lower concentration", "setting": "[1]", "result": "More calcium deposition"}, {"measurement": "MCF7 cell proliferation induced by estradiol", "setting": "[2]; 5 μM", "result": "significantly suppress"}, {"measurement": "MCF7 cell proliferation", "setting": "[2]; dose of 5 μM or higher", "result": "inhibited the proliferation"}, {"measurement": "MCF7 cell proliferation", "setting": "[2]; low dose of 0.3 μM", "result": "induced MCF7 cell proliferation"}, {"measurement": "cell proliferation induced by 17beta-estradiol in MDA-MB-231 cells (ER negative)", "setting": "[3]", "result": "had no effect"}]}, {"compound": "C[C@]12CC[C@@H]3c4ccc(O)cc4C[C@@H](CCCCCCCCC[S+]([O-])CCCC(F)(F)C(F)(F)F)[C@H]3[C@@H]1CC[C@@H]2O", "note": "(some centres unmarked) [ICI182780, reference compound]", "values": [{"measurement": "effect of antagonist on F4-induced ALP activity", "setting": "[4]; day 4", "result": "no effect"}, {"measurement": "effect of antagonist on F4-induced ALP activity", "setting": "[4]; day 7", "result": "inhibited"}, {"measurement": "effect of antagonist on F4-stimulated ERE promoter activity", "setting": "[5]; 5 μM F4", "result": "could be inhibited"}, {"measurement": "effect of antagonist on estradiol-stimulated ERE-driven promoter activity", "setting": "[5]", "result": "inhibited"}]}, {"compound": "C[S+]([O-])c1ccc(-c2nc(-c3ccncc3)c(-c3ccc(F)cc3)[nH]2)cc1", "note": "(centres unmarked) [SB203580, reference compound]", "values": [{"measurement": "effect of MAP kinase inhibitor on F4-induced increases in ALP activity", "setting": "[4]; with 5 μM F4, 2 days", "result": "significantly inhibited"}, {"measurement": "levels of phosphorylated p38 in F4-treated cells on addition of inhibitor", "setting": "[6]", "result": "reduced the levels of phosphorylated p38"}]}]}
